In patent US12636278B2, “HDAC6-inhibited human regulatory T cells” (H. LEE MOFFITT CANCER CENTER AND RESEARCH INSTITUTE, INC., priority 2020, dated 2026):
“Also recorded” adds a separate entry of the source.

Tests used:
[1] = tested on: allo-specific nTregs; assay: Limiting dilution assay (LDA), frequency of allo-specific nTregs after 12 days with allogeneic moDCs; type: cell-based, human; conditions: for mean fold expansion of allo-specific nTregs: 12 days with unrelated moDCs, compared to DMSO; for frequency of antigen-specific thymic Tregs: after 12 days of culture with allogeneic moDCs
Procedure: (§1) FIG. 1A show purified, human Tregs stimulated by allogeneic, monocyte-derived dendritic cells for 5-6 days, with HDTK032 or DMSO added once on day 0. The medium was also supplemented with IL-2 and IL-15. […] Proliferation was analyzed by Cell Trace Violet dilution among CD4^+, CD127^−, CD25^bright Tregs. […] FIG. 1C is a graph showing on-target alpha-tubulin acetylation of HDTK032 or DMSO treated Tregs. One representative experiment of 3 independent studies is shown. […] One representative donor Treg expansion of 4 independent experiments is shown. *P<0.05.
(§2) HDAC6-deficient mice are known to generate increased amounts of Tregs, both at stead-state in vivo and after polyclonal stimulation in vitro. However, such findings have never been translated to human immunity. Human nTregs (CD4^+, CD127^−, CD25+) were purified by magnetic bead isolation, stimulated with allogeneic moDCs, supplemented with IL-2, and treated with HDTK032, a selective and potent HDAC6 inhibitor, or DMSO (<0.01%) vehicle control once on day 0. After 5-6 days of culture, the nTregs were harvested and enumerated. […] Using the limiting dilution assay (LDA) we measured the precise frequency of allo-specific nTregs after stimulation with unrelated moDCs for 12 days. For these experiments, the HDAC6 inhibitors, HDTK032 and tubastatin, were compared against DMSO. Overall, the mean fold expansion was approximately 130-fold with either HDAC6 inhibitor compared to DMSO (FIG. 1D).

[2] = tested on: human nTregs (CD4+, CD127-, CD25+); assay: Treg proliferation and expansion after stimulation with allogeneic moDCs, 5-6 days; type: cell-based; conditions: drug added once on day 0, compared to DMSO
Procedure: as §1
as §2, with “Overall, the mean fold expansion was approximately 130-fold with either HDAC6 inhibitor compared to DMSO (FIG. 1D).” left out

[3] = tested on: HDAC6; assay: On-target alpha-tubulin acetylation in treated nTregs; type: cell-based, human; conditions: compared to DMSO
Procedure: as §1
as §2, with “Overall, the mean fold expansion was approximately 130-fold with either HDAC6 inhibitor compared to DMSO (FIG. 1D).” left out

[4] = tested on: NSG mice with human skin xenograft; assay: Human skin xenograft rejection model with adoptive transfer of pre-treated Tregs; type: in vivo; conditions: day +21; 5x10^4 nTregs expanded ex vivo with drug (tubastatin 1 μM, HDTK032 2.5 μM); no systemic drug; compared to PBMCs alone
Procedure: NSG mice received a 1 cm^2 split thickness human skin graft. After 30 days of rest to permit engraftment, 5×10^6 human PBMCs (allogeneic to the skin) were injected into the mice. A week prior to PBMC injection, Tregs from the PBMC donor were expanded with mature DCs from the skin donor (Treg:DC ratio 30:1) and cultured for 5-6 days in the presence of DMSO (<0.1%), tubastatin (1 μM), HDTK032 (2.5 μM). In coordination with the PBMC injection, recipient mice were also inoculated with CD25-bead purified, Tregs (5×10^4) expanded with DMSO, tubastatin, HDTK032. A control group received PBMCs alone. FIG. 3A contains representative contour plots showing the purity (>95% pure) of the injected Tregs (CD4^+, CD127^−, CD25^bright, Foxp3+) for each experimental condition. […] Pooled data from 3 independent experiments, with up to 9 mice per experimental group. […]
FIGS. 5A to 5D show pathogenic Th17 cells are decreased in the periphery among mice treated with HDAC6-inhibited human Tregs. […] Recipient spleens were harvested on day +21, stained for Th17s (CD4^+, IL-17^+) or Tregs (CD4^+, CD127^−, CD25^bright, Foxp3^+), and analyzed by flow cytometry. […]
FIGS. 6A to 6C show circulating human Th1 cells are reduced after adoptive transfer of HDAC6-inhibited Tregs. […] Recipient spleens were harvested on day +21, stained for Th1s (CD4^+, IFNγ^+) or Th2s (CD4^+, IL-4^+), and analyzed by flow cytometry. […]

[5] = tested on: T cell responders stimulated by allogeneic DCs; assay: Suppression assay of pre-treated nTregs in mixed leukocyte reactions; type: cell-based, human; conditions: nTregs exposed to drug for 5 days; nTreg:T cell ratio 1:500 or 1:50; no drug in secondary culture; compared to DMSO-treated nTregs
Procedure: The suppressive capacity of DC-allostimulated thymic Tregs previously exposed to HDTK032, tubastatin, or DMSO was tested at different ratios of Treg to T cell responders stimulated by fresh allogeneic DCs (DC:responder T cell ratio of 1:30) in mixed leukocyte reactions. No additional drugs or DMSO were added to the medium. […] Data are from one representative experiment of 3 independent studies performed.
Next we investigated whether HDAC6 blockade impacted nTreg function. Purified nTregs were stimulated with allogeneic moDCs plus IL-2 while exposed to tubastatin, HDTK032, or DMSO for 5 days. The nTregs were harvested and cultured with autologous T cells (nTreg:T cell ratio 1:500 or 1:50) targeting fresh allogeneic moDCs. No additional drugs were added to the secondary cultures.

[6] = tested on: autologous T responders; assay: Suppression assay of treated antigen-specific nTreg with 10:1 autologous T responders and allogeneic DCs; type: cell-based; conditions: 10:1 autologous T responders; proliferation measured on day +6; compared to DMSO
Source text: Suppression assay of DMSO- or HDAC-treated, antigen-specific nTreg in culture with 10:1 autologous T responders and allogeneic DCs. Proliferation measured on day +6. […] PAN=Panobinostat, NEXT=Nexturastat-B, TUBA=Tubastatin. DMSO is vehicle control.

[7] = tested on: antigen-specific nTreg; assay: Proliferation of antigen-specific nTreg with allogeneic DC, IL-2 and IL-15 (CPM, day +6); type: cell-based; conditions: drugs added once on day 0; CPM on day +6
Source text: Purified nTreg+allogeneic dendritic cells (DC)+IL-2+IL-15. Drugs added once on day 0. Proliferation measured as CPM on day +6.

| Structure (SMILES) | mean fold expansion of allo-specific nTregs [1] | frequency of antigen-specific thymic Tregs [1] | proliferative capacity of nTregs (CellTrace Violet dilution) ([2]; 5-6 days) | amount of nTregs ([2]; after 5-6 days of culture) | amount of acetylated α-tubulin [3] | skin graft rejection [4] | suppressive potency of pre-treated nTregs [5] | suppressive function of nTreg [6] | proliferation and expansion of antigen-specific nTreg [7] |
| --- | --- | --- | --- | --- | --- | --- | --- | --- | --- |
| O=C(NO)c1ccc2c(c1)OC[C@H](c1ccccc1)N(C(=O)C1CCOCC1)C2 [HDTK032, (3S)—N-hydroxy-4-(oxane-4-carbonyl)-3-phenyl-2,3,4,5-tetrahydro-1,4-benzoxazepine-8-carboxamide] | approximately 130 fold | increase | increased | significantly increased; also recorded: increases | increase | significantly reduced | significantly more potent | – | – |
| CCCCN(Cc1ccc(C(=O)NO)cc1)C(=O)Nc1ccc2cn[nH]c2c1 [Nexturastat-B, Nexturastat B] | – | – | – | – | – | – | – | significantly increase | – |
| CN1CCc2c(c3ccccc3n2Cc2ccc(C(=O)NO)cc2)C1 [Tubastatin A, reference compound] | approximately 130 fold | increase | – | – | – | significantly reduced | significantly more potent | significantly increase | significantly enhance |
